Data taken from US20230018765A1, “A 19-NOR C3,3-DISUBSTITUTED C21-N-PYRAZOLYL STEROID AND METHODS OF USE THEREOF” (Sage Therapeutics, Inc., priority 2019, published 2023).

Experiments:
[1] = test system: adult patients diagnosed with MDD (MADRS total score ≥32 and a HAM-D total score ≥22); assay: double-blind, randomized placebo-controlled Phase 3 study of Compound 1 in Major Depressive Disorder (efficacy by HAM-D total score, safety and tolerability); type: in vivo, human; conditions: for overall incidence of patients who experienced AEs: 14-day treatment period and 28-day follow up, placebo 48.9%; for AE incidence: Fatigue: placebo 2.6%; for AE incidence: Sedation / subjects having treatment emergent AEs leading to study drug discontinuation: placebo 3.2%; for AE incidence: Dizziness: placebo 3.7%; for AE incidence: Somnolence: placebo 4.2%; for AE incidence: Nausea: placebo 4.7%; for AE incidence: Diarrhea: placebo 5.3%; for AE incidence: Headache: treatment period and 28-day follow up, placebo 7.4%
Protocol: Compound 1 was evaluated in a double-blind, randomized placebo-controlled Phase 3 study in Major Depressive Disorder (MDD). The evaluated the efficacy, safety and pharmacokinetics of Compound 1 in adult patients diagnosed with MDD (MADRS total score ≥32 and a HAM-D total score ≥22).
Compound 1 was administered to a patient, either in 20 mg daily doses once a day for 14 days or 30 mg once a day for 14 days.

[2] = test system: GABAA receptors; assay: modulation of GABAA receptors; conditions: synaptic and extrasynaptic GABAA receptors
[3] = test system: subjects with MDD; assay: HAM-D course after a Compound 1 treatment cycle (response/remission at Day 15, HAM-D at Day 42); type: in vivo, human
[4] = test system: subjects with MDD; assay: Phase 2 study in subjects with MDD / previous clinical trials of Compound 1
[5] = among subjects achieving remission or response at Day 15, Day 42

## C[C@@]1(O)CC[C@H]2[C@H](CC[C@@H]3[C@@H]2CC[C@]2(C)[C@@H](C(=O)Cn4cc(C#N)cn4)CC[C@@H]32)C1 [Compound 1]
[1]; 20 mg once a day for 14 days
  separation from placebo (HAM-D) of the 20 mg dose: did not separate from placebo
[1]; 20 mg or 30 mg once a day for 14 days
  tolerability in the trial: generally well tolerated
[1]; 20 mg
  overall incidence of patients who experienced AEs: 50.0%
  AE incidence: Fatigue: 1.6%
  AE incidence: Sedation: 5.9%
  subjects having treatment emergent AEs leading to study drug discontinuation: 1.6%
  AE incidence: Dizziness: 7.4%
  AE incidence: Somnolence: 5.9%
  AE incidence: Nausea: 5.3%
  AE incidence: Diarrhea: 5.9%
  AE incidence: Headache: 11.2%
[1]; 20 mg, SAEs related to cocaine ingestion, Day 39
  patients who reported SAEs during follow-up: one
[1]; 30 mg (n=166)
  onset of effect (HAM-D vs placebo): beginning at Day 3
[1]; 30 mg (n=166) vs placebo (n=157), Day 3, p=0.016
  LS Mean Difference from placebo, HAM-D total score, Day 3: −1.6
[1]; 30 mg (printed 30 rug)
  AE incidence: Diarrhea: 6.3%
[1]; 30 mg once a day for 14 days, Day 15, placebo 11.2
  reduction in depressive symptoms in the HAM-D total score at Day 15 (primary endpoint): 12.6
[1]; 30 mg vs placebo, post-hoc, p=0.017
  LS Mean Difference, HAM-D total score at Day 15, patients with measurable drug concentrations and HAM-D≥24: −2.6
[1]; 30 mg vs placebo, post-hoc, p=0.032
  LS Mean Difference, HAM-D total score at Day 15, patients with HAM-D≥24: −2.3
[1]; 30 mg vs placebo, post-hoc, p=0.048
  LS Mean Difference, HAM-D total score at Day 15, patients with measurable drug concentrations: −1.8
[1]; 30 mg
  overall incidence of patients who experienced AEs: 54.2%
  AE incidence: Fatigue: 6.8%
  AE incidence: Sedation: 4.7%
  subjects having treatment emergent AEs leading to study drug discontinuation: 2.1%
  AE incidence: Dizziness: 5.7%
  AE incidence: Somnolence: 6.8%
  AE incidence: Nausea: 3.6%
  AE incidence: Headache: 6.3%
[1]; 30 mg, Day 8, p=0.008
  LS Mean Difference from placebo, HAM-D total score, Day 8: −2.1
[1]; 30 mg, Day 12, p=0.018
  LS Mean Difference from placebo, HAM-D total score, Day 12: −2.1
[1]; 30 mg, Day 15, p=0.115
  LS Mean Difference from placebo, HAM-D total score, Day 15: −1.4
[1]; 30 mg, Day 42, p=0.807
  LS Mean Difference from placebo, HAM-D total score, Day 42: −0.5
[1]; 30 mg, Day 42, placebo −11.7
  Change from baseline in HAM-D total score at Day 42: −11.9
[1]; 30 mg, post-hoc, n=124, placebo −11.4
  Change from baseline in HAM-D total score at Day 15, patients with HAM-D≥24: −13.7
[1]; 30 mg, post-hoc, n=151, placebo −11.2
  Change from baseline in HAM-D total score at Day 15, patients with measurable drug concentrations: −13.0
[1]; 30 mg, post-hoc, placebo −11.4
  Change from baseline in HAM-D total score at Day 15, patients with measurable drug concentrations and HAM-D≥24: −14.0
[1]; 30 mg, suicide attempt Day 5, bile duct stone after Day 2
  patients who experienced serious adverse events (SAEs) during treatment: Two
[1]; 30 mg, syncope and associated injuries, Day 28
  patients who reported SAEs during follow-up: one
[1]; all treatment groups, through Day 42
  durability of improvements in depressive symptoms, double-blind portion: sustained in all treatment groups through Day 42
[1]; any group
  AEs of loss of consciousness: no ABs of loss of consciousness
[1]; compared to baseline
  suicidal ideation or suicidal behavior by Columbia Suicide Severity Rating Scale (C-SSRS): no signal fir increased suicidal ideation or suicidal behavior
[1]; patients who completed long-term follow-up up to 6 months, preliminary data
  durability of improvement in depressive symptoms, long-term follow-up: maintenance of improvement in depressive symptoms
[2]
  mode of action at GABAA receptors: positive allosteric modulator of GABAA receptors
[3]; Day 15
  subjects achieving remission or response at Day 15: 78.6%
[3]; [5]
  subjects with HAM-D≥22 at Day 42: 6.1%
  subjects with a HAM-D score of 16 to 21 at Day 42: 18.2%
[4]; 30 mg per day
  efficacy in a Phase 2 study in subjects with MDD: efficacious
  tolerability in a Phase 2 study in subjects with MDD: well-tolerated
[4]; administered in the morning
  adverse effect in previous clinical trials, morning administration: sedation/somnolence observed
[4]; given in the evening
  tolerability in previous clinical trials, evening administration: improved tolerability
